The results in this text go back to patent US20060008855A1, “Promiscuous G-protein compositions and their use” (Invitrogen Corporation, a Delaware corporation, priority 1996, published 2006).

Several values for one entry are separate records, joined by “and”; a condition that tells them apart may be missing. Equal entries are not always repeated.

For assay [1], the system named is β-lactamase. The experiment in a line: β-lactamase cleavage of CCF2 in phosphate buffer, emission spectrum. It is filed as biochemical. Conditions: 50 mmolar phosphate buffer pH 7.0, excitation 405 nm. The source says: The emission spectrum of compound CCF2 in 50 mmolar phosphate buffer pH 7.0 before and after β-lactamase cleavage of the β-lactam ring. In the intact substrate, efficient energy transfer occurs from the 7-hydroxycoumarin moiety to the fluorescein moiety. Excitation of the substrate at 405 nm results in fluorescence emission at 515 nm (green) from the acceptor dye fluorescein. The energy transfer is disrupted when β-lactamase cleaves the β-lactam ring, thereby severing the link between the two dyes. Excitation of the products at 405 nm now results entirely in donor fluorescence emission at 448 nm (blue). The fluorescence emission from the donor moiety increases 25 fold upon β-lactam cleavage. The fluorescence at 515 nm is reduced by 3.5-fold, all of the remaining fluorescence originating from the 7-hydroxycoumarin as its emission spectrum extends into the green. Twenty-five-fold quenching of the donor in the substrate is equivalent to an efficiency of fluorescence energy transfer of 96%. This large fluorescence change upon β-lactam cleavage can readily be used to detect β-lactamase in the cytoplasm of living mammalian cells.

Assay [2] deals with T1, RTEM β-lactamase (Escherichia coli, UniProt P62593). The experiment in a line: Pixel intensities of CCF2 loaded CHO cells transiently transfected with RTEM β-lactamase gene. Also on record: expressed in transfected cells; host or cells: CHO, transiently transfected. It is filed as cell-based. The settings on record: for pixel intensity, coumarin emission filter: 450 DF 65 filter.
T1 sequence (P62593 24-286 limits assumed): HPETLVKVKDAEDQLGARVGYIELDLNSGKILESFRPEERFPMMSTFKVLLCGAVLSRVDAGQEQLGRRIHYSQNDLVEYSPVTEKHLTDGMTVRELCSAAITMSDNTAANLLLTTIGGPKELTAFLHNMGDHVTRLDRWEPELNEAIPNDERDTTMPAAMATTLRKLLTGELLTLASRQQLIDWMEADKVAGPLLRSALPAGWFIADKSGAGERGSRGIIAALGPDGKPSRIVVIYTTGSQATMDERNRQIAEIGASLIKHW
Method: (§1) Cells from cell lines of various mammalian origin were transiently transfected with a plasmid containing the RTEM β-lactamase gene under the control of a mammalian promoter. […] D. 1.10 to 48 hours after transfection cells were exposed to 5 micromolar CCF2/ac2AM2 for 1 to 6 hours. […] To quantitate the fluorescence measurements the cells were first viewed through coumarin (450 DF 65) and then fluorescein (515 EFLP) emission filters and pictures were recorded with a charge couple device camera. The average pixel intensities of CCF2 loaded transfected cells (blue) and controls (green) at coumarin and fluorescein wavelength in COS-7 (Table 2) and CHO (Table 3) cells are summarized; values for 4 representative cells for each population are given.

For assay [3], the target named is T1, RTEM β-lactamase. The experiment in a line: Pixel intensities of CCF2 loaded COS-7 cells transiently transfected with RTEM β-lactamase gene. The settings on record: for pixel intensity, coumarin emission filter: 450 DF 65 filter. It is filed as cell-based. Also on record: expressed in transfected cells; host or cells: COS-7, transiently transfected.
Method: as §1
For assay [4], the system named is NFAT promoter. Nature of the assay: NFAT promoter β-lactamase reporter gene assay in Jurkat T lymphocytes. It is filed as cell-based. From the text: These examples employ Jurkat T lymphocytes that were transfected with a genetic construct that expresses a reporter gene. The genetic construct includes a NFAT promoter, which is responsive to increased calcium levels and protein kinase C activation that result from activation of Gα protein. The NFAT promoter was operably linked to a β-lactamase reporter gene. To detect expression of the reporter gene, and thereby detect activation of Gα, the cells were contacted with the β-lactamase substrate CCF2ac2/AM2 (described herein), and fluorescence emission was detected according to previously described methods (Tsien et al., 1993, Trends in Cell Biology 3:242-245).
Two different compounds, ionomycin and phorbol myristate acetate (PMA), were used to optimize detection of expression of the reporter gene in these examples. In the first example, the dose response to ionomycin was measured. In this example, a set of samples of cells were contacted with PMA (at 3 nM) and the calcium ionophore ionomycin (at various concentrations, ranging from 0 to 3.0 μM). […]
In practicing these methods, it is preferable to add the ionophore to a level that is just below the threshold level for activation of the calcium-responsive promoter (e.g., the NFAT promoter). […] As is illustrated in FIG. 4A, fluorescence emission from a sample of the aforementioned cells can be measured by FRET. In this example, fluorescence emission was measured approximately 90 minutes after stimulation. Because the fluorogenic β-lactamase substrate undergoes a shift in fluorescence emission, fluorescence emission is measured as an emission ratio (450/530) when exciting at 400 nm. […]
In a second example, the dose response of PMA required to stimulate NFAT-driven expression was measured. […] As above, fluorescence emission was measured 90 minutes after stimulation. […]
For orientation: Reporter assays use an easily measured gene product as a stand-in for the process of interest.

Assay [5] deals with Gα15 or Gα16 expression. Nature of the assay: Doxycyclin-inducible expression of Gα15 or Gα16 in COS-7 cells, Western blot. It is filed as cell-based. Conditions: COS-7 clones, tet operator/CMV promoter; doxycyclin 3 g/ml. The source says: The data summarized herein indicate that, although cells may not tolerate constitutive expression of promiscuous Gα proteins at high levels, they can tolerate expression of promiscuous Gα proteins from an inducible promoter. In this case, the genes for Gα15 and Gα16 were placed under the control of a cytomegalovirus (CMV) promoter that was operably linked to a heptamerized tet operator (Gossen and Bujard, 1992, Proc. Natl. Acad. Sci. 89:5547-5551). The plasmid encoding Gα and; the plasmid encoding Gα16 are identical, except sequences encoding Gα16 in lieu of Gα15. These plasmids were used to transfect COS-7 cells. These cells were co-transfected with a tetracyclin-dependent transactivator, rtTA, that is operably linked to a CMV promoter of a plasmid that carries a neomycin resistance gene (Gossen et al., 1995, Science 268:1766-1769).
Expression of the Gα genes was induced by contacting the cells with doxycyclin, a tetracyclin analog. In these experiments, the doxycyclin concentration was […], although doxycyclin concentrations ranging from […] can be used in order to regulate the level of gene expression. […] FIG. 3 illustrates that, in the presence of doxycyclin, expression of Gα15 or Gα16 is detectable as a band of approximately 43 kDa. […]

Take `O=C(CNC(=O)c1cc2cc(Cl)c(O)cc2oc1=O)N[C@@H]1C(=O)N2C(C(=O)O)=C(CSc3ccc4c(c3)C(=O)OC43c4ccc(O)cc4Oc4cc(O)ccc43)CS[C@H]12` [CCF2]: in assay [1], the “reduction of fluorescence at 515 nm upon β-lactam cleavage” value worked out at 3.5 fold. Moreover, in assay [1] (emission 448 nm), the “increase of fluorescence emission from the donor moiety upon β-lactam cleavage” value is listed as 25 fold. The “pixel intensity, coumarin emission filter” value in assay [2] (blue cell (transfected)) is 98 and 70 and 76 and 56; in assay [2] (green cell (control)), 9 and 7; in assay [3] (COS-7, blue cell (transfected)), 22 and 27 and 34 and 31; in assay [3] (COS-7, green cell (control)), 4 and 5 and 3. The “pixel intensity, Fluorescein emission filter” value in assay [2] (blue cell (transfected), 515 EFLP filter) is 112 and 113 and 92 and 67; in assay [3] (COS-7, blue cell (transfected), 515 EFLP filter), 33 and 20 and 23 and 31.

As to `CCCCCCCCCCCCCC(=O)O[C@@H]1[C@@H](C)[C@@]2(O)[C@@H](C=C(CO)C[C@]3(O)C(=O)C(C)=C[C@@H]23)[C@@H]2C(C)(C)[C@]12OC(C)=O` [PMA, phorbol myristate acetate], in assay [4] (0 to 30 nM with 1 μM ionomycin, 90 minutes after stimulation), the “effect on fluorescence emission from the cell sample” value is on record as “increased fluorescence emission”. Moreover, the “concentration preferable for enhancing detection of expression of a reporter gene” value in assay [4] (with 1 μM ionomycin, 90 minutes after stimulation) is given as “approximately 3 nM”.

As for `C[C@H]1c2cccc(O)c2C(O)=C2C(=O)[C@]3(O)C(O)=C(C(N)=O)C(=O)[C@@H](N(C)C)[C@@H]3[C@@H](O)[C@@H]21` [doxycyclin], the “Gα proteins produced upon induction of gene expression” value in assay [5] is on record as “Up to 10,000 Gα proteins/cell”.

Consider `C[C@H](CCC(=O)O)C[C@H](C)C[C@H](C)C(=O)/C=C(\O)[C@H](C)C[C@H](C)C/C=C/[C@@H](C)[C@@H](O)[C@@H](C)[C@@H](O)C[C@@H]1CC[C@@](C)([C@H]2CC[C@@](C)([C@@H](C)O)O2)O1` [ionomycin], for which, in assay [4] (with PMA at 3 nM, emission ratio 450/530, about 90 minutes after stimulation), the “concentration raising intracellular calcium to just below the threshold level for activation of the calcium-responsive promoter” value is listed as “approximately 0.3 μM”.
